Experimental data from PubChem BioAssay AID2305 (GlaxoSmithKline (GSK), 2010).
Values joined by “and” are separate entries in the source; they are usually repeats but may differ in a detail not shown here. Identical values can stand only once.

The compounds below were run on P. falciparum 3D7 growth, pLDH absorbance (assay: P. falciparum 3D7 growth inhibition, dose response, strain 3D7 (AID 2305)).

Cc1nc(NC2=NCN(CCCN3CCOCC3)CN2)nc2c(C)cccc12 and C=CCn1c(C)cc(C(=O)COc2ccc(S(=O)(=O)N3CCOCC3)cc2[N+](=O)[O-])c1C are within 1.5-fold of each other in IC50: 1130 nM for the first, 1110 nM for the second.

O=C(C=Cc1ccc(Cl)c(Cl)c1)NCCCCCN1CCCC(CCCNS(=O)(=O)c2cccc3cccnc23)C1 (stereo not drawn) and O=C(/C=C/c1ccc(Cl)c(Cl)c1)NC1CCN(Cc2ccc(O)cc2)CC1 are within 1.5-fold of each other in IC50: 1000 nM for the first, 690 nM for the second.

Going from CCCN(CCC)CCCN(CCCN(CCC)CCC)c1cc(C)nc(Nc2ccc3cc(Br)ccc3c2)n1 to COc1ccccc1CCNc1nc(C)cc(N[C@@H](Cc2ccccc2)C(=O)Nc2ccccc2)n1, the IC50 rises from 210 nM to 1020 nM (4.9-fold).

CC(=O)c1ccc(N2CCN(CCC3(c4ccc(Cl)c(Cl)c4)COCN(C(=O)c4ccccc4)C3)CC2)cc1 (stereo not drawn) and COc1cccc(C2(C)CCN(CCCCNC(=O)c3ccc(NC(=O)c4ccc(Cl)cc4)cc3)CC2)c1 are within 1.5-fold of each other in IC50: 920 nM for the first, 830 nM for the second.

CC(C)(C)c1ccc(S(=O)(=O)Nc2ccccc2Cn2nc(N3CCNCC3)ccc2=O)cc1 and NC1CCN(CCc2ccc(NS(=O)(=O)c3ccc(-c4ccccc4)cc3)cc2)CC1 are within 1.5-fold of each other in IC50: 850 nM for the first, 1020 nM for the second.

Compared with CN1CCN(C(C(=O)NCc2cc(Cl)cc(Cl)c2)c2ccc(NC(=O)Nc3ccccc3)cc2)CC1 (stereo not drawn), Cc1cccc(CN2CCCN(Cc3ccc(C(=O)Nc4ccc(C)c(F)c4)cc3)CC2)c1 is 1.5-fold higher in IC50: 690 nM for the first, 1060 nM for the second.

COc1ccc(Nc2ncc3c(-c4ccc(NC(=O)c5cccc(C(F)(F)F)c5)cc4)c[nH]c3n2)cc1OC and O=C(Nc1ccc(-c2ccc(-c3nc4ccc(C(F)(F)F)cc4[nH]3)s2)cc1)c1ccoc1 are within 1.5-fold of each other in IC50: 1030 nM for the first, 850 nM for the second.

First: COc1cc(N)cc2sc(N)nc12
Second: COC(=O)c1sc2ccccc2c1NC(=O)c1ccc(C)c(C)c1
The IC50 of the first is 4.3-fold lower: 250 nM for the first, 1070 nM for the second. The first is the more potent here.

First: Cc1cccc2c(N=NC(=S)N(C)C)c(O)[nH]c12
Second: Cc1[nH]c(C)c(C2CCC(c3ccc(Cl)cc3)CC2)c(=O)c1Cl (stereo not drawn)
The IC50 of the first is 15-fold higher: 750 nM for the first, 50 nM for the second. The second is the more potent here.

Going from CC(C)CN1C(=O)c2ccccc2C(C(=O)Nc2cccc(C#N)c2)C1c1cccs1 (stereo not drawn) to Cc1nnsc1C(=O)Nc1cccc(-c2ccc(-c3nc4ccccc4[nH]3)s2)c1, the IC50 rises from 160 nM to 880 nM (5.5-fold). The first is the more potent here.

O=C(NCC1CCN(CCN2CCc3ccc4c(c3C2)OCO4)CC1)c1ccc(-c2ccc(C(F)(F)F)cc2)cc1 and CC(C)CCN1CCCN(Cc2ccc(C(=O)Nc3ccc(C(C)(C)C)cc3)cc2)CC1 are within 1.5-fold of each other in IC50: 860 nM for the first, 870 nM for the second.

Compared with COc1ccc(-c2ccc(Nc3cccc(S(=O)(=O)CCN4CCC(CCN(C)C)CC4)c3)nc2)cn1, N#Cc1ccc(-c2cnc3ccc(NCCc4cccnc4)nn23)cc1 is 4.3-fold lower in IC50: 1120 nM for the first, 260 nM for the second. The second is the more potent here.

Compared with COc1cc2c(cc1OCCN1CCC(N3CCCCC3)CC1)N(C(=O)/C=C/c1ccccc1OC(F)(F)F)CC2, Cc1cc(CNC(=O)[C@H](CC2CCCCC2)Nc2ccc(C#N)c3ccccc23)c(C(F)(F)F)o1 is 2-fold higher in IC50: 590 nM for the first, 1180 nM for the second.

Going from Cc1cccc2[nH]c(-c3ccc(-c4ccc(CN5CCCCC5)cc4)cc3)nc12 to O=C(NCc1cccc(F)c1)Nc1cccc(-c2ccc(-c3nc4ccc(F)cc4[nH]3)cc2)c1, the IC50 rises from 590 nM to 1050 nM (1.8-fold). The first is the more potent here.

Going from COc1cc2c(c(OC)c1OC)C[C@H]1c3c(cc4c(c3-2)OCO4)CCN1C to Cc1cc(C(=O)NCc2ccc(-c3c(C)noc3C)cc2)n(-c2ccc(Cl)cc2)n1, the IC50 falls from 970 nM to 530 nM (1.8-fold). The second is the more potent here.

Compared with CC(=O)Nc1ccc2[nH]cc(C3CCN(CC4CCC(NC(=O)/C=C/c5ccccc5Cl)CC4)CC3)c2n1 (stereo not drawn), O=C(CCCCCc1ccccc1)NC1CCC(CN2CCC(c3c[nH]c4ccccc34)CC2)CC1 (stereo not drawn) is 3.2-fold higher in IC50: 360 nM for the first, 1140 nM for the second. The first is the more potent here.

O=C(N[C@H]1CCN(CCc2ccc(O[C@H]3CCNC3)cc2)C1)c1ccc(Cl)c(Cl)c1 and O=C(NC1CCN(Cc2ccccc2O)C1)c1cccc(C(F)(F)F)c1 (stereo not drawn) are within 1.5-fold of each other in IC50: 830 nM for the first, 730 nM for the second.

Going from O=C(N[C@@H](Cc1ccccc1)[C@H](O)CNC1CCOCC1)c1cc(C2CCCC2)cc(N2CCCCS2(=O)=O)c1 to CCCc1nc2c(N3CCCN(C(=O)NC4CCCCC4)CC3)cccc2n1Cc1ccccn1, the IC50 rises from 200 nM to 1160 nM (5.8-fold). The first is the more potent here.

First: COc1ccc2nccc(N3CCC(SCCNCc4ccc5c(n4)NC(=O)CS5)C3)c2n1 (stereo not drawn)
Second: Cc1ccnc2nc(C(=O)Nc3cc(C(F)(F)F)ccc3N3CCCCC3)nn12
The IC50 of the first is 4.2-fold higher: 250 nM for the first, 60 nM for the second. The second is the more potent here.

O=S(=O)(c1c(Cl)cc(Cl)cc1Cl)N1CCCCC(c2ccc(C(F)(F)F)cc2)=N1 and Cc1cc(C(=O)NC2CCN(CC3(c4ccc(Cl)cc4)CCC3)CC2)on1 are within 1.5-fold of each other in IC50: 100 nM for the first, 90 nM for the second.

CC(C)C(C)(C#N)NC(=O)CSc1nc2ccc([N+](=O)[O-])cc2s1 (stereo not drawn) and Cc1cc(C(=O)CSc2nc3ccccc3n2-c2ccccc2)c(C)n1C1CCS(=O)(=O)C1 (stereo not drawn) are within 1.5-fold of each other in IC50: 1030 nM for the first, 1000 nM for the second.

Compared with CCC1(CC)C(=O)N=C(N2CCCCC2)N(C)C1=O, CCC[C@@H]([C@@H](CC1CCCCC1)C(=O)N[C@H](C(=O)Nc1nccs1)C(C)(C)SCCNC(=O)OCc1ccccn1)N(O)C=O is 1.9-fold lower in IC50: 300 nM for the first, 160 nM for the second. The second is the more potent here.

Compared with Cc1cc(N[C@@H](Cc2ccccc2)C(=O)Nc2ccccc2)nc(NCCc2ccccn2)n1, c1ccc(CNCc2cccc(-c3csc(-c4nc5ccccc5[nH]4)c3)c2)cc1 is 1.9-fold lower in IC50: 870 nM for the first, 460 nM for the second.

In the case of NC(N)=Nc1ccc(C(=O)O)c(O)c1, the IC50 is reported as 1030 nM.

With Cc1ccc(C[C@@H](C)NC[C@H](O)c2cccc(C(F)(F)F)c2)cc1 the IC50 was 880 nM and 710 nM.
